Measurements taken from patent US10231996B2, “Biocampatible polymer coated silver Prussian blue nanoparticles (SPB-NPs: Ag3[Fe(CN) 6])” (COUNCIL OF SCIENTIFIC & INDUSTRIAL RESEARCH, priority 2015, dated 2019).

Assays:
[1] = test system: B16F10 aggressive murine melanoma tumor; assay: In vivo B16F10 melanoma tumor model in C57BL6/J mice; conditions: free Dox 2.5 mg/kg, after four IP injections, compared to SPB(1,1)NPs treated mice
Procedure: In vivo tumor model was carried out using male C57BL6/J mice (8-9 weeks old). Approximately, 2.5×10^5 B16F10 cells resuspended in 100 μL of sterile HBSS were subcutaneously injected to lower right abdomen of male mice. […] All the treatments were Intraperitoneally (IP) injected on alternate days over a period of 15 days. The volume of tumor was measured by using the formula (0.5×ab^2), where ‘a’ represents the longest dimension and ‘b’ represents the shortest dimension of the tumors. Also, the weight and picture of the tumors were taken after the sacrifice. […] The loss of body weight can correlate with the nonspecific side effects of Dox in normal physiological function.

[2] = test system: E. coli; assay: Colony forming units (CFU), E. coli; format: cell-based; conditions: positive control 2 mg/ml, 24 hours
Procedure: (§1) Streptomycin at 2 mg/ml concentration was used as positive control. The plated were incubated for 24 hours at 37° C. The number of colonies appeared on the surface of the LB agar plates were counted. […] We previously reported the antibacterial activity of biosynthesized silver nanoparticles (Mukherjee et al. Theranostics, 2014; 4: 316-335).

[3] = test system: Bacillus subtilis; assay: Colony forming units (CFU), Bacillus subtilis; format: cell-based; conditions: positive control 2 mg/ml, 24 hours
Procedure: as §1

[4] = test system: E. coli; assay: Measurement of lipid peroxidation; format: cell-based; conditions: positive control; (sample O.D/Control O.D)×100
Procedure: Lipid peroxidation was measured according to standard protocol. […] 1.5 ml of 20% acetic acid (pH 3.5), 1.5 ml of 0.8% thiobarbituric acid (in 1.1% SDS) and 0.05 ml of 20% TCA were added and mixed thoroughly. The tubes were then incubated for 60 minutes at 100° C. and 5 ml of butanol was added to each tube. The tubes were then centrifuged at 4000 rpm for 15 minutes. The pink supernatant was measures at 532 nm. The % of lipid peroxidation was measured by using the following formula: % of lipid peroxidation=(sample O.D/Control O.D)×100.

COc1cccc2c1C(=O)c1c(O)c3c(c(O)c1C2=O)C[C@@](O)(C(=O)CO)C[C@@H]3O[C@H]1C[C@H](N)[C@H](O)[C@H](C)O1 [Dox, doxorubicin]
body weight [1]: significant loss of bodyweight

[H]/N=C(/N)N[C@H]1[C@H](O)[C@@H](O)[C@H](O[C@@H]2O[C@@H](C)[C@](O)(C=O)[C@H]2O[C@@H]2O[C@@H](CO)[C@H](O)[C@@H](O)[C@@H]2NC)[C@@H](N/C(N)=N\[H])[C@@H]1O [streptomycin]
bacterial growth (colonies) [2]: bacterial colonies were observed | bacterial growth (colonies) [3]: bacterial colonies were observed | lipid peroxidation [4]: 60%
